# Reference: article PMC11396062, “The n-Butanol Extract Obtained from the Inner Bark of Tabebuia rosea (Bertol.) DC, Specioside, and Catalposide Induce Leukemia Cell Apoptosis in the Presence of Apicidin” (Molecules, 2024)
# Where two headings read alike, the source gives them in different places.
# How the values were obtained:
# Type in all cases: cell-based, human
# THP-1 cells [1] = experiment: Cell cycle analysis by flow cytometry; conditions: THP-1 (Figure S6)
# Method: After treatment with the extract, 7 × 10^4 cells were harvested, washed with PBS, fixed with 200 µL of ice-cold 70% ethanol, and maintained at 4 °C for 4 h before staining. The cell pellet was washed in 1X PBS, resuspended in 200 µL of Guava Cell Cycle reagent (#4500-0220, Millipore), and incubated in the dark at 37 °C for 30 min before analysis with a Guava flow cytometer (Merck Millipore, Bedford, MA, USA) using InCyte software (version 3.1, Merck Millipore).. Centrifugation was performed at 1200 rpm for 5 min at room temperature for each step.
# p38 MAPK = experiment: Western blot p38 phosphorylation; conditions: THP-1, APC pretreatment, p < 0.001
# Method: (§1) THP-1 cells were seeded in 24-well plates (5 × 10^5 cells/well), and after 24 h of incubation, they were pretreated with 1 µM apicidin for 24 h and then treated with different concentrations of the n-butanol extract, catalposide, and specioside for 24 h. After treatment, the cells were lysed with an Abcam protein extraction kit (ab270054), and a phosphatase inhibitor cocktail (ab201115) was added. The supernatants of the cell extracts were quantified with a BCA protein assay (Thermo Scientific Pierce #23227, Waltham, MA, USA). Equivalent amounts of protein were electrophoresed on 10% SDS polyacrylamide gels and then electroblotted onto 0.45 μm polyvinylidene difluoride (PVDF) membranes (GE Healthcare, Chicago, IL, USA). […] The signals were detected using SuperSignal™ West Pico PLUS Chemiluminescent Substrate (Thermo Scientific Pierce cat 34577) and analyzed with a ChemiDoc XRS+ system (Bio-Rad, Hercules, CA, USA). The density of each band was measured using ImageJ software V. 1.53n, 7 November 2021 (NIH, Bethesda, MD, USA), and the protein levels were normalized to the GAPDH levels. The data are expressed as the means of three independent experiments. […]
# ERK = experiment: Western blot ERK phosphorylation; conditions: THP-1, 24 h
# Method: as §1
# THP-1 cells [2] = experiment: MTT cell viability assay, THP-1 cells; conditions: for IC50: MTT, n = 3
# Method: (§2) Jurkat and THP-1 cell lines were purchased from the American Type Culture Collection (ATCC, Rockville, MD, USA); Jurkat is a human lymphocytic cell line representing acute T-cell leukemia, and THP-1 is a monocytic cell line that represents acute myelogenous leukemia (AML). […] Cat Nos. […] The cells were maintained at 37 °C in a humidified atmosphere with 5% CO2. The culture medium was exchanged with fresh medium every 2-3 days. Peripheral blood mononuclear cells (PBMCs) were isolated from normal human venous blood. Further, 10 milliliters of human blood was mixed with 10 mL of RPMI-1640 containing 50 μL of heparin and gradually poured over 1 mL of HISTOPAQUE®-1119 (Sigma). The plasma was removed by centrifugation at 3000 rpm for 30 min. The peripheral blood mononuclear cell-containing layer was collected with a pipette and diluted in 4 mL of PBS. PBMCs were harvested by centrifugation at 1500 rpm for 10 min at room temperature, resuspended in RPMI-1640 with 10% FBS, and incubated at 37 °C in 5% CO2 humidified air. […] Doxorubicin was used as a reference standard drug (positive control). After treatment, the medium was discarded; 200 μL of RPMI 1640 medium without phenol red containing 0.5 mg/mL MTT (Sigma Chemical Co., Saint Louis, MO, USA; Cat. No. […] The plates were incubated for four hours at 37 °C with 5% CO2 in a humidified atmosphere. The medium was discarded, and 100 μL of DMSO was added to solubilize the formazan crystals. The absorbance was measured with an ELISA microplate reader at 492 nm (ELx800; BioTek Instruments Inc., Winooski, VT, USA). The percentage of viable cells was calculated on the basis of the nontreated control (taken as 100%). […] Three independent assays were performed, each in triplicate. The selectivity index corresponds to the ratio of the IC50 value calculated for the activity of synthesized compounds on a regular cell line (PBMCs) to that of the IC50 calculated for cancer cell lines (Jurkat and THP-1). Values greater than two were optimal for an efficient selectivity index.
# JNK = experiment: Western blot JNK phosphorylation; conditions: THP-1, 24 h; specioside all concentrations except 60 μg/mL in presence of APC
# Method: as §1
# Jurkat cells = experiment: MTT cell viability assay, Jurkat cells; conditions: for IC50: Homo sapiens, Jurkat, MTT, n = 3; for SI (selectivity index): IC50 PBMC / IC50 Jurkat
# Method: as §2
# [3] = Homo sapiens, THP-1, 12 h, read-out: IC50
# [4] = Homo sapiens, THP-1, 24 h, read-out: IC50
# [5] = Homo sapiens, THP-1, 48 h, read-out: IC50
SMILES,percentage of cells in the G0/G1 phase compared with control (THP-1 cells [1]),phosphorylation of p38 in cells pretreated with APC compared with control (p38 MAPK),phosphorylation of the ERK protein compared with control (ERK),IC50 (THP-1 cells [2]; [3]) [µg/mL],IC50 (THP-1 cells [2]; [4]) [µg/mL],IC50 (THP-1 cells [2]; [5]) [µg/mL],"SI (selectivity index) (THP-1 cells [2]; IC50 PBMC / IC50 THP-1, 12 h)","SI (selectivity index) (THP-1 cells [2]; IC50 PBMC / IC50 THP-1, 24 h)","SI (selectivity index) (THP-1 cells [2]; IC50 PBMC / IC50 THP-1, 48 h)","IC50 (THP-1 cells [2]; THP-1, 24 h) [µg/mL]",phosphorylation of the JNK protein compared with control (JNK),IC50 (Jurkat cells; 12 h) [µg/mL],IC50 (Jurkat cells; 24 h) [µg/mL],IC50 (Jurkat cells; 48 h) [µg/mL],SI (selectivity index) (Jurkat cells; 12 h),SI (selectivity index) (Jurkat cells; 24 h),SI (selectivity index) (Jurkat cells; 48 h)
O=C(/C=C/c1ccc(O)cc1)O[C@H]1[C@@H]2C=CO[C@@H](O[C@@H]3O[C@H](CO)[C@@H](O)[C@H](O)[C@H]3O)[C@@H]2[C@@]2(CO)O[C@@H]12 [Specioside],the increase was significant,significantly increased,did not significantly change,47.2 ± 2.3,40.3,26.3 ± 6.8,3.49,1.75,2.06,40.32 ± 1.3,significantly phosphorylated,137.7 ± 1.3,81.7 ± 3.5,68.9 ± 2.1,1.20,0.86,0.79
"O=C(O[C@H]1[C@@H]2C=CO[C@@H](O[C@@H]3O[C@H](CO)[C@@H](O)[C@H](O)[C@H]3O)[C@@H]2[C@@]2(CO)O[C@@H]12)c1ccc(O)cc1 [Catalposide, catalposide]",the increase was significant,significantly increased,decreased protein phosphorylation but not significantly,122 ± 3.3,43.9,30.2 ± 1.67,1.03,1.99,1.44,43.86 ± 2.2,did not significantly change,107 ± 5.3,92.8 ± 1.5,71.2 ± 2.8,1.18,0.94,0.61
